Measurements published in patent US20240190849A1, “AMINOPYRIMIDINE COMPOUNDS AND METHODS OF THEIR USE” (TYRA BIOSCIENCES, INC., priority 2021, published 2024).

What was measured:
[1] = target: T1, FGFR3 (Homo sapiens, UniProt P22607); test: Kinase binding assay (kinase-tagged T7 phage, affinity beads, qPCR readout), FGFR3; conditions: FGFR binding data
T1 construct: made in house; host or cells: E. coli derived from BL21, infected with T7 phage
Procedure, shortened: (§1)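 Competition binding: kinases displaced from biotinylated-ligand streptavidin beads by test compound in binding buffer (20% SeaBlock, 0.17×PBS, 0.05% Tween 20, 6 mM DTT), 1 hour at room temperature, 0.9% DMSO. Bead-bound kinase eluted with 0.5 μM free ligand, quantified by qPCR. Kd from 11-point 3-fold dilutions, Hill slope fixed at −1.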

[2] = target: T2, FGFR1 (Homo sapiens, UniProt P11362); test: Kinase binding assay (kinase-tagged T7 phage, affinity beads, qPCR readout), FGFR1; conditions: FGFR binding data
T2 construct: made in house; host or cells: E. coli derived from BL21, infected with T7 phage
T2 sequence (P11362 22-822): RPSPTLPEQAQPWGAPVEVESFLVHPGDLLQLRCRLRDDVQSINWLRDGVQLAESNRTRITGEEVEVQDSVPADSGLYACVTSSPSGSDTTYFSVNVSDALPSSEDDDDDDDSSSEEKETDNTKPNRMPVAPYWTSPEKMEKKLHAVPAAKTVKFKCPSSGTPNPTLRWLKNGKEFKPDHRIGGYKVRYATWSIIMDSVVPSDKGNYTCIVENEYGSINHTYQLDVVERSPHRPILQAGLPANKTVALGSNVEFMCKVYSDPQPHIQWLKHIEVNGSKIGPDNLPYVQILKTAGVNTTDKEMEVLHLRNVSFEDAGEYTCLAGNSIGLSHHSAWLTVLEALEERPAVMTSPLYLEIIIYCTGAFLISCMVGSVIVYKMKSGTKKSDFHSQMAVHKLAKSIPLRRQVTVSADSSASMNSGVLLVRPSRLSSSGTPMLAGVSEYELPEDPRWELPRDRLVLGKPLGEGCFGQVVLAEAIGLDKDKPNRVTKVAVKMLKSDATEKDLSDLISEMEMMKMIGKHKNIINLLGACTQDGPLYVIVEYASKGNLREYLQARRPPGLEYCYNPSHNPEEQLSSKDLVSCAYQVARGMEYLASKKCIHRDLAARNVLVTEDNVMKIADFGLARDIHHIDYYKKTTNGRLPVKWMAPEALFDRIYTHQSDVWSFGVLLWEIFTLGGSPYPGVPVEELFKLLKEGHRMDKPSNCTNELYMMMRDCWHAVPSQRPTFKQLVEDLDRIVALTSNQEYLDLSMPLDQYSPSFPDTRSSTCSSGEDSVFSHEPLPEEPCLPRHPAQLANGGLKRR
Procedure, shortened: as §1

[3] = target: T3, FGFR2 (Homo sapiens, UniProt P21802); test: Kinase binding assay (kinase-tagged T7 phage, affinity beads, qPCR readout), FGFR2; conditions: FGFR binding data
T3 construct: made in house; host or cells: E. coli derived from BL21, infected with T7 phage
T3 sequence (P21802 22-821): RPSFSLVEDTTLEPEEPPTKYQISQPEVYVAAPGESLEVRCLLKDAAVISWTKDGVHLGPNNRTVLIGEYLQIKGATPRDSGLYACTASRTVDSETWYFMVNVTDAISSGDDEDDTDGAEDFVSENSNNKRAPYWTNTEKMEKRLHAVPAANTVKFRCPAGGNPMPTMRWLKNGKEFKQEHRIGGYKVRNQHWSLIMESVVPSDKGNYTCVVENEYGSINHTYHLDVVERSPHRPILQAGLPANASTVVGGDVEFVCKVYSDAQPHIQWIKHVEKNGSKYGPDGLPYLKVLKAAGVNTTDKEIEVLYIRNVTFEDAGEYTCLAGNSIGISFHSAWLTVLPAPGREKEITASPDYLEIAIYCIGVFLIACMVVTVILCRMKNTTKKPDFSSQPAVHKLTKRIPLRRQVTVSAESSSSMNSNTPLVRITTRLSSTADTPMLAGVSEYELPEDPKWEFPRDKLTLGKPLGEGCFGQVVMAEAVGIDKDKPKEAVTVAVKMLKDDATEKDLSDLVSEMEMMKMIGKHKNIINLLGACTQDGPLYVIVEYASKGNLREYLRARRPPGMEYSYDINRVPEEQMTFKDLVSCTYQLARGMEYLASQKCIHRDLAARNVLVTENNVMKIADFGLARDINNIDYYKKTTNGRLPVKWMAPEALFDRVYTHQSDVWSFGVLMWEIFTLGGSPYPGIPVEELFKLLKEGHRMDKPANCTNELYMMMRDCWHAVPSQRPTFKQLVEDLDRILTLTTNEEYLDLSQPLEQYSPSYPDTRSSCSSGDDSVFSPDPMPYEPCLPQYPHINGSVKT
Procedure, shortened: as §1

[4] = target: T4, FGFR3 (V555M) (Homo sapiens, UniProt P22607, V555M); test: Kinase binding assay (kinase-tagged T7 phage, affinity beads, qPCR readout), FGFR3 (V555M); conditions: FGFR binding data
T4 construct: made in house; host or cells: E. coli derived from BL21, infected with T7 phage
T4 sequence (P22607 23-806 V555M): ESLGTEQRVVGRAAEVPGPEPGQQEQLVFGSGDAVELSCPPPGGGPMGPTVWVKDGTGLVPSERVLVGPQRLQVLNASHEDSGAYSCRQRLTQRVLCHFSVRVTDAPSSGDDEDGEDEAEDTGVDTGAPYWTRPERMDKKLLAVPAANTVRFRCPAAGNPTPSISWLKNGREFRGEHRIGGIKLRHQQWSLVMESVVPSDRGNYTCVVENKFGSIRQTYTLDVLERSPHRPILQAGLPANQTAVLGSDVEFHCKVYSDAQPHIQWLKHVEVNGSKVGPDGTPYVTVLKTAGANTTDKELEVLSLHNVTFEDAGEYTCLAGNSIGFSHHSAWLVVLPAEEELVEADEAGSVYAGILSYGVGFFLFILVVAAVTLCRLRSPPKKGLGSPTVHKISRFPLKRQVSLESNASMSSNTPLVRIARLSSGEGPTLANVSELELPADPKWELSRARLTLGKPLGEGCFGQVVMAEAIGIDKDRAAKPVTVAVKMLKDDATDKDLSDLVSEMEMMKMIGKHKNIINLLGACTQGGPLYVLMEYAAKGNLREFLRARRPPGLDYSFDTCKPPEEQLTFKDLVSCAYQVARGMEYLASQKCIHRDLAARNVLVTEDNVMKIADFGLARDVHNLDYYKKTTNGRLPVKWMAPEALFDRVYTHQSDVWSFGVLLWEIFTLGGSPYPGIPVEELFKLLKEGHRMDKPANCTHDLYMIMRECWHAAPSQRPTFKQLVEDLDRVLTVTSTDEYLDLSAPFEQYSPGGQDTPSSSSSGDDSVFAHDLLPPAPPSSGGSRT
Procedure, shortened: as §1

[5] = test system: RT112/84 (Bladder Cancer), FGFR3-TACC3 fusion; test: Cancer cell viability assay (Cell Titer-Glo), RT112/84; assay type: cell-based; conditions: Homo sapiens, RT112/84 cells, 72 hours
Excerpt: (§2) RT112/84, UM-UC-14, SNU-16 and KG-1 Cancer Cell Line Cell Viability Assays
(§3) To detect the change of intracellular ATP by Cell Titer-Glo@ and to evaluate the inhibitory effect of the compounds on cancer cell lines by determining the in vitro IC50 value of the compounds.
(§4) Cell Titer-Glo@ 2.0 Luminescent cell viability assay reagent was purchased from Promega (Madison, WI). RT112/84, SNU-16, and KG-1 cell lines were purchased from American Type Culture Collection (Manassas, VA). UM-UC-14 cell line was purchased from Sigma (St. Louis, MO). RT112/84, UM-UC-14, SNU-16, and KG-1 cells were cultured in RPMI1640 media supplemented with 10% fetal bovine serum. Cultures were maintained at 37° C. in a humidified atmosphere of 5% CO2 and 95% air.
(§5) Cell Viability Assay Procedure: Cells were plated in 96-well clear bottom/white plates (Corning #3903) at 10,000 cells/well in 100 μl of media, incubated overnight. The next day, test compound DMSO stock solutions were made at 10 mM and 2 μM final concentration. Compounds were then added to cells in a 9-dose, […] dilution series starting at 30 μM with an HP 300e Digital Dispenser (each dose was applied in triplicate). DMSO was backfilled to each well up to 301 nL total volume of test compound+DMSO, and a total of 301 nL DMSO was added to a control/no test compound well in triplicate. The cells in cell culture plates were incubated with the compounds at 37° C. and 5% CO2 for 72 hours. Then 50 μl of Cell Titer Glo 2.0 reagent was added to each well of the cell culture plates. The contents were covered from light and mixed on an orbital shaker at room temperature for 10 min. Luminescence was recorded by a Synergy H1 Microplate Reader (Biotek, Winooski, VT). Cells were assessed as a percentage of DMSO only treated control cells. Curves were plotted and IC50 values were calculated using the GraphPad Prism 8 program based on a sigmoidal dose-response equation (4 parameter).

[6] = test system: UM-UC-14 (Bladder Cancer), FGFR3(S249C); test: Cancer cell viability assay (Cell Titer-Glo), UM-UC-14; assay type: cell-based; conditions: UMUC14, UM-UC-14 cells, 72 hours
Excerpt: as §2, §3, §4, §5

[7] = test system: SNU-16 (Gastric Carcinoma), FGFR2 amplification; test: Cancer cell viability assay (Cell Titer-Glo), SNU-16; assay type: cell-based; conditions: Homo sapiens, SNU-16 cells, 72 hours, read-out: SNU16 FGFR2 (IC50 nM)
Excerpt: as §2, §3, §4, §5

T1 sequence (P22607 23-806): as the sequence (P22607 23-806 V555M) above, with M533V counted along it

Kd [1] [nM]	Kd [2] [nM]	Kd [3] [nM]	Kd [4] [nM]	IC50 [5] [nM]	IC50 [6] [nM]	IC50 [7] [nM]	SMILES
0.1 to 100	100 to 250	0.1 to 100	0.1 to 100	0.1 to 100	0.1 to 100	–	C=CC(=O)Nc1ccc2c(c1)c(C)cn2-c1nc(Nc2ccnn2C)ncc1F [Example 69, N-[1-[5-fluoro-2-[(2-methylpyrazol-3-yl)amino]pyrimidin-4-yl]-3-methyl-indol-5-yl]prop-2-enamide]
0.1 to 100	0.1 to 100	0.1 to 100	0.1 to 100	–	0.1 to 100	0.1 to 100	C=CC(=O)Nc1ccc2c(c1)c(C)cn2-c1nc(Nc2cnn(CCO)c2)ncc1Cl [Example 89, N-[1-[5-chloro-2-[[1-(2-hydroxyethyl)pyrazol-4-yl]amino]pyrimidin-4-yl]-3-methyl-indol-5-yl]prop-2-enamide]
0.1 to 100	0.1 to 100	0.1 to 100	0.1 to 100	100 to 250	–	–	C=CC(=O)Nc1ccc2c(ccn2-c2nc(Nc3ccc(N4CCN(C)CC4)cc3)ncc2Cl)c1 [Example 1, N-[1-[5-chloro-2-[4-(4-methylpiperazin-1-yl)anilino]pyrimidin-4-yl]indol-5-yl]prop-2-enamide]
0.1 to 100	0.1 to 100	0.1 to 100	0.1 to 100	100 to 250	–	–	C=CC(=O)Nc1ccc2c(c1)c(C)cn2-c1nc(Nc2cnn(C)c2)ncc1C#N [Example 32, N-[1-[5-cyano-2-[(1-methylpyrazol-4-yl)amino]pyrimidin-4-yl]-3-methyl-indol-5-yl]prop-2-enamide]
0.1 to 100	0.1 to 100	0.1 to 100	0.1 to 100	–	0.1 to 100	–	C=CC(=O)Nc1ccc2c(c1)c(C)cn2-c1nc(Nc2cnn3c2CCC3)ncc1F [Example 207, N-[1-[2-(5,6-dihydro-4H-pyrrolo[1,2-b]pyrazol-3-ylamino)-5-fluoro-pyrimidin-4-yl]-3-methyl-indol-5-yl]prop-2-enamide]
0.1 to 100	0.1 to 100	0.1 to 100	0.1 to 100	–	0.1 to 100	0.1 to 100	C=CC(=O)Nc1ccc2c(c1)c(C)cn2-c1nc(Nc2cnn(CCO)c2)ncc1F [Example 90, N-[1-[5-fluoro-2-[[1-(2-hydroxyethyl)pyrazol-4-yl]amino]pyrimidin-4-yl]-3-methyl-indol-5-yl]prop-2-enamide]
0.1 to 100	0.1 to 100	0.1 to 100	0.1 to 100	0.1 to 100	–	0.1 to 100	C=CC(=O)Nc1ccc2c(c1)c(C)cn2-c1nc(Nc2cnn(C[C@H](C)O)c2)ncc1F [Example 186, N-[1-[5-Fluoro-2-[[1-[(2S)-2-hydroxypropyl]pyrazol-4-yl]amino]pyrimidin-4-yl]-3-methyl-indol-5-yl]prop-2-enamide]
0.1 to 100	0.1 to 100	0.1 to 100	0.1 to 100	0.1 to 100	–	0.1 to 100	C=CC(=O)Nc1ccc2c(c1)c(C)cn2-c1nc(Nc2cn(C)nc2C)ncc1C [Example 187, N-[1-[2-[(1,3-dimethylpyrazol-4-yl)amino]-5-methyl-pyrimidin-4-yl]-3-methyl-indol-5-yl]prop-2-enamide]
0.1 to 100	0.1 to 100	0.1 to 100	0.1 to 100	0.1 to 100	–	0.1 to 100	C=CC(=O)Nc1ccc2c(c1)c(C)cn2-c1nc(Nc2cnn(C[C@@H](C)O)c2)ncc1F [Example 185, N-[1-[5-Fluoro-2-[[1-[(2R)-2-hydroxypropyl]pyrazol-4-yl]amino]pyrimidin-4-yl]-3-methyl-indol-5-yl]prop-2-enamide]

Further lines, the compound ahead of its results:

SMILES	Kd [1] [nM]	Kd [2] [nM]	Kd [3] [nM]	Kd [4] [nM]	IC50 [5] [nM]	IC50 [6] [nM]	IC50 [7] [nM]
C=CC(=O)Nc1ccc2c(c1)c(C)cn2-c1nc(Nc2cn(C)nc2C#N)ncc1Cl [Example 70, N-[1-[5-chloro-2-[(3-cyano-1-methyl-pyrazol-4-yl)amino]pyrimidin-4-yl]-3-methyl-indol-5-yl]prop-2-enamide]	0.1 to 100	100 to 250	0.1 to 100	0.1 to 100	250 to 1000	–	–
C=CC(=O)Nc1ccc2c(-c3ccnc(Nc4cnn(C(F)(F)F)c4)n3)cn(C)c2c1 [Example 184, N-[1-methyl-3-[2-[[1-(trifluoromethyl)pyrazol-4-yl]amino]pyrimidin-4-yl]indol-6-yl]prop-2-enamide]	0.1 to 100	250 to 1000	0.1 to 100	0.1 to 100	–	0.1 to 100	0.1 to 100
C=CC(=O)Nc1ccc2c(c1)c(C)nn2-c1nc(Nc2ccnn2C)ncc1F [Example 76, N-[1-[5-fluoro-2-[(2-methylpyrazol-3-yl)amino]pyrimidin-4-yl]-3-methyl-indazol-5-yl]prop-2-enamide]	250 to 1000	> 1000	250 to 1000	> 1000	–	250 to 1000	–
C=CC(=O)Nc1ccc2c(c1)c(C)cn2-c1nc(Nc2cn(C)cn2)ncc1C [Example 36, N-[3-methyl-1-[5-methyl-2-[(1-methylimidazol-4-yl)amino]pyrimidin-4-yl]indol-5-yl]prop-2-enamide]	0.1 to 100	0.1 to 100	0.1 to 100	0.1 to 100	100 to 250	0.1 to 100	–
C=CC(=O)Nc1ccc2c(-c3nc(Nc4ccc(N5CCN(C)CC5)cc4)ncc3Cl)cn(C)c2c1 [Example 50, N-[3-[5-chloro-2-[4-(4-methylpiperazin-1-yl)anilino]-pyrimidin-4-yl]-1-methyl-indol-6-yl]prop-2-enamide]	–	–	–	–	0.1 to 100	–	–
C=CC(=O)Nc1ccc2c(c1)c(C)cn2-c1nc(Nc2c(C)nn(C)c2C)ncc1Cl [Example 41, N-[1-[5-chloro-2-[(1,3,5-trimethylpyrazol-4-yl)amino]pyrimidin-4-yl]-3-methyl-indol-5-yl]prop-2-enamide]	0.1 to 100	100 to 250	0.1 to 100	0.1 to 100	250 to 1000	–	–
C=CC(=O)Nc1ccc2c(-c3ccnc(Nc4cnn(C5CCC5)c4)n3)cn(C)c2c1 [Example 189, N-[3-[2-[(1-cyclobutylpyrazol-4-yl)amino]pyrimidin-4-yl]-1-methyl-indol-6-yl]prop-2-enamide]	0.1 to 100	0.1 to 100	0.1 to 100	0.1 to 100	0.1 to 100	0.1 to 100	–
C=CC(=O)Nc1ccc2c(c1)c(C)cn2-c1nc(Nc2cccc(CN3CCOCC3)c2)ncc1Cl [Example 78, N-[1-[5-chloro-2-[3-(morpholinomethyl)anilino]pyrimidin-4-yl]-3-methyl-indol-5-yl]prop-2-enamide]	0.1 to 100	0.1 to 100	0.1 to 100	0.1 to 100	0.1 to 100	–	0.1 to 100
C=CC(=O)Nc1ccc2c(-c3ccnc(Nc4cnn(C(F)F)c4)n3)cn(C)c2c1 [Example 188, N-[3-[2-[[1-(difluoromethyl)pyrazol-4-yl]amino]pyrimidin-4-yl]-1-methyl-indol-6-yl]prop-2-enamide]	0.1 to 100	0.1 to 100	0.1 to 100	0.1 to 100	0.1 to 100	0.1 to 100	–
C=CC(=O)Nc1ccc2c(c1)c(C)cn2-c1nc(Nc2ccc(N3CCOCC3)cc2)ncc1C#N [Example 38, N-[1-[5-cyano-2-(4-morpholinoanilino)pyrimidin-4-yl]-3-methyl-indol-5-yl]prop-2-enamide]	0.1 to 100	0.1 to 100	0.1 to 100	0.1 to 100	0.1 to 100	–	–
C=CC(=O)Nc1ccc2c(c1)c(C)cn2-c1nc(Nc2ccc(CN3CCOCC3)c(F)c2)ncc1Cl [Example 68, N-[1-[5-chloro-2-[3-fluoro-4-(morpholinomethyl)anilino]pyrimidin-4-yl]-3-methyl-indol-5-yl]prop-2-enamide]	0.1 to 100	0.1 to 100	0.1 to 100	0.1 to 100	0.1 to 100	0.1 to 100	–
